From patent US20260097126A1, “PHARMACEUTICAL FORMULATIONS AND METHODS FOR THE TREATMENT OF METABOLIC AND LIVER DISORDERS” (priority 2022, published 2026)

Tests used:
[1] = Stability study of Compound 4 formulations; format: physicochemical
GLP-1 receptor [2] = target: T1, GLP-1 receptor (Homo sapiens, UniProt P43220); experiment: HSA modulated binding assay, GLP-1 receptor
GIP receptor [3] = target: T2, GIP receptor (Homo sapiens, UniProt P48546); experiment: HSA modulated binding assay, GIP receptor
T2 sequence (P48546 22-466): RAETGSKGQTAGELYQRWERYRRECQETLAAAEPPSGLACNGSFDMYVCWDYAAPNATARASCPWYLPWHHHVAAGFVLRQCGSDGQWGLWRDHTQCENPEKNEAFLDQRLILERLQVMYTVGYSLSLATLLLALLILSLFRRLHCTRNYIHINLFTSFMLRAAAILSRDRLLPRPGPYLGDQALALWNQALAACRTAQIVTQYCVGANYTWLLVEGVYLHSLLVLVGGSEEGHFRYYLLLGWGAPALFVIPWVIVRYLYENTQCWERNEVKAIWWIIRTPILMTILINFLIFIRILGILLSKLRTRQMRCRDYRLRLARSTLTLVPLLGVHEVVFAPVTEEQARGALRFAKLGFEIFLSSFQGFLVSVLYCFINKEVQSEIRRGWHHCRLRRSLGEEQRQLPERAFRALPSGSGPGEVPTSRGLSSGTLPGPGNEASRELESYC

[4] = Pharmacokinetic study of Compounds 4, 14, 15, 17 in monkeys; conditions: cynomolgus monkey, in vivo, sc, 0.2 mg/kg
Method: The formulations were administered to cynomolgus monkeys at a dose of 0.2 mg/kg. Plasma concentration versus time data was collected and pharmacokinetic values determined.

GLP-1 receptor [5] = target: T1, GLP-1 receptor; experiment: TagLite binding assay, GLP-1 receptor; conditions: for IC50: read-out: GLP-1 receptor IC 50
[6] = system: mice fed a Gubra amylin NASH (GAN) diet; experiment: Biological effects in GAN diet-induced NASH mice; format: in vivo; conditions: after two weeks; for Gal-3 Relative / Gal-3 Total: liver Galectin-3, histological quantitative assessment; for α-SMA Relative / α-SMA Total: liver alpha-smooth muscle actin, histological quantitative assessment; for TG Relative / TG Total: liver triglycerides
Method: NASH was induced in mice by feeding mice a Gubra amylin NASH (GAN) diet as described in Boland et al. World J Gastroenterol. 2019, 25(33): 4904-4920. One week prior to administration of a first dose of compounds, the mice were weighed and randomized, and their food intake was measured. Mice were randomly assigned to dosing groups, with twelve mice per group. […] Compound dose titration (nmol/kg): 0.6 (day 0), 1.2 (day 1), 2.4 (day 2), 4.8 (day 3), 4.8 (day 4), 12 (day 5), 30.0 (from day 6).
After two weeks, animals were sacrificed. Plasma enzymes (P-ALT (alanine aminotransferase) and P-AST (aspartate aminotransferase)), total plasma triglycerides, and total plasma cholesterol were measured, and terminal necropsy of each liver was carried out, determining relative liver weight as a percentage of body weight, assaying total liver biochemistry including total liver triglycerides, plasma insulin and total liver cholesterol, as well as histological evaluation of Galectin-3, and alpha-smooth muscle actin.

GIP receptor [7] = target: T2, GIP receptor; experiment: TagLite binding assay, GIP receptor; conditions: for IC50: read-out: GIP receptor IC 50
[8] = GMP formulation, 2.5 mg/ml Compound 4, 0.94% propylene glycol, 0.36% phenol, 0.074% dibasic sodium phosphate, 0.005% polysorbate 80, initial
[9] = same formulation stored for one month at 25° C./60% R.H.
[10] = binding with 2% HSA to binding with 0% HSA

T1 sequence (P43220 24-463): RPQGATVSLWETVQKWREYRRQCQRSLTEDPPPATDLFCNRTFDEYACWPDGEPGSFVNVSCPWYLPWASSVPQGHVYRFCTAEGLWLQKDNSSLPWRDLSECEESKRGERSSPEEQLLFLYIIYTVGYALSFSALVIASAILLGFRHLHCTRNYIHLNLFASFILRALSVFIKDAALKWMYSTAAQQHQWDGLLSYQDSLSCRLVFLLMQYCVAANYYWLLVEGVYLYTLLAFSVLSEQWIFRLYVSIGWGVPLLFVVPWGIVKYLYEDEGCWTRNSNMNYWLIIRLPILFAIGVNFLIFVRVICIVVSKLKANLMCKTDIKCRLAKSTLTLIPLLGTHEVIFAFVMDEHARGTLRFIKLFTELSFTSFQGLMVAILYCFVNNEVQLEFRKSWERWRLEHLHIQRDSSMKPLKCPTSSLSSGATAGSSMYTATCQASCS

For `CC[C@H](C)[C@H](NC(=O)[C@H](CC(C)C)NC(=O)[C@H](Cc1c[nH]c2ccccc12)NC(=O)[C@H](CCC(N)=O)NC(=O)[C@@H](NC(=O)[C@H](Cc1ccccc1)NC(=O)[C@H](C)NC(=O)[C@H](CCCCNC(=O)COCCOCCNC(=O)COCCOCCNC(=O)CC[C@H](NC(=O)CCCCCCCCCCCCCCCCCCP(=O)(O)O)C(=O)O)NC(=O)[C@H](CCC(N)=O)NC(=O)[C@H](C)NC(=O)[C@@H](NC(=O)[C@H](CCCCN)NC(=O)[C@H](CC(=O)O)NC(=O)[C@H](CC(C)C)NC(=O)C(C)(C)NC(=O)[C@@H](NC(=O)[C@H](CO)NC(=O)[C@H](Cc1ccc(O)cc1)NC(=O)[C@H](CC(=O)O)NC(=O)[C@H](CO)NC(=O)[C@@H](NC(=O)[C@H](Cc1ccccc1)NC(=O)[C@@H](NC(=O)CNC(=O)[C@H](CCC(=O)O)NC(=O)C(C)(C)NC(=O)[C@@H](N)Cc1ccc(O)cc1)[C@@H](C)O)[C@@H](C)O)[C@@H](C)CC)[C@@H](C)CC)C(C)C)C(=O)N[C@@H](C)C(=O)NCC(=O)NCC(=O)N1CCC[C@H]1C(=O)N[C@@H](CO)C(=O)N[C@@H](CO)C(=O)NCC(=O)N[C@@H](C)C(=O)N1CCC[C@H]1C(=O)N1CCC[C@H]1C(=O)N1CCC[C@H]1C(=O)N[C@@H](CO)C(N)=O` [Compound 4], the “Compound 4 assay, before storage” value [1, 8] was 103%, the “total impurities, before storage” value [1, 8] was 0.57% and the “Compound 4 assay, after storage” value [1, 9] was 102.4%. For the same molecule, the “total impurities, after storage” value [1, 9] was 0.76%, the IC50 (GLP-1 receptor [2]; 0% human serum albumin, read-out: GLP-1 receptor IC 50, 0% HSA) was 154 nM and the “GLP-1 receptor Ratio of HSA/No HSA” value (GLP-1 receptor [2]; [10]) was 6.42. For the same molecule, the IC50 (GLP-1 receptor [2]; read-out: GLP-1 receptor IC 50, 2% HSA, 2% human serum albumin) was 988 nM, the IC50 (GIP receptor [3]; 0% human serum albumin, read-out: GIP receptor IC 50, 0% HSA) was 264 nM and the “GIP receptor Ratio of HSA/No HSA” value (GIP receptor [3]; [10]) was 1.25. For the same molecule, the IC50 (GIP receptor [3]; read-out: GIP receptor IC 50, 2% HSA, 2% human serum albumin) was 331 nM, the AUC(0-inf) [4] was 321 µg·h/mL and the AUC(0-t) [4] was 309 µg·h/mL. For the same molecule, the CL/F [4] was 15.2 mL/day/kg, the Cmax [4] was 1890 ng/mL and the Tmax [4] was 20 h. The Vd/F [4] was 0.095 L/kg, the half-life [4] was 4.38 days and the IC50 (GLP-1 receptor [5]) was 105 nM. The “liver Galectin-3 compared to tirzepatide or vehicle (in words)” value [6] was “lower relative and total liver Galectin-3 as compared to administration of tirzepatide or vehicle alone”, the “liver alpha-smooth muscle actin compared to tirzepatide (in words)” value [6] was “lower relative and total liver alpha-smooth muscle actin as compared to administration of tirzepatide” and the “liver triglycerides compared to tirzepatide or vehicle (in words)” value [6] was “lower relative and total liver triglycerides as compared to administration of tirzepatide or vehicle alone”. The “Gal-3 Relative” value [6] was 6.3 ± 0.3 percent fractional area, the “Gal-3 Total” value [6] was 137 ± 15 mg and the “α-SMA Relative” value [6] was 4.8 ± 0.6 percent fractional area. For the same molecule, the “α-SMA Total” value [6] was 102 ± 10 mg, the “TG Relative” value [6] was 37 ± 3 mg per/g liver and the “TG Total” value [6] was 70 ± 5 mg per/liver. The IC50 (GIP receptor [7]) was 153 nM.

With `CC[C@H](C)[C@H](NC(=O)[C@H](CC(C)C)NC(=O)[C@H](Cc1c[nH]c2ccccc12)NC(=O)[C@H](CCC(N)=O)NC(=O)[C@@H](NC(=O)[C@H](Cc1ccccc1)NC(=O)[C@H](C)NC(=O)[C@H](CCCCNC(=O)COCCOCCNC(=O)COCCOCCNC(=O)CC[C@H](NC(=O)CCCCCCCCCCCCCCCCCCC(=O)O)P(=O)(O)O)NC(=O)[C@H](CCC(N)=O)NC(=O)[C@H](C)NC(=O)[C@@H](NC(=O)[C@H](CCCCN)NC(=O)[C@H](CC(=O)O)NC(=O)[C@H](CC(C)C)NC(=O)C(C)(C)NC(=O)[C@@H](NC(=O)[C@H](CO)NC(=O)[C@H](Cc1ccc(O)cc1)NC(=O)[C@H](CC(=O)O)NC(=O)[C@H](CO)NC(=O)[C@@H](NC(=O)[C@H](Cc1ccccc1)NC(=O)[C@@H](NC(=O)CNC(=O)[C@H](CCC(=O)O)NC(=O)C(C)(C)NC(=O)[C@@H](N)Cc1ccc(O)cc1)[C@@H](C)O)[C@@H](C)O)[C@@H](C)CC)[C@@H](C)CC)C(C)C)C(=O)N[C@@H](C)C(=O)NCC(=O)NCC(=O)N1CCC[C@H]1C(=O)N[C@@H](CO)C(=O)N[C@@H](CO)C(=O)NCC(=O)N[C@@H](C)C(=O)N1CCC[C@H]1C(=O)N1CCC[C@H]1C(=O)N1CCC[C@H]1C(=O)N[C@@H](CO)C(N)=O` [Compound 8] the IC50 (GLP-1 receptor [5]) was 288 nM, the “liver Galectin-3 compared to tirzepatide or vehicle (in words)” value [6] was “lower relative and total liver Galectin-3 as compared to administration of tirzepatide or vehicle alone” and the “liver alpha-smooth muscle actin compared to tirzepatide (in words)” value [6] was “lower relative and total liver alpha-smooth muscle actin as compared to administration of tirzepatide”. For the same molecule, the “liver triglycerides compared to tirzepatide or vehicle (in words)” value [6] was “lower relative and total liver triglycerides as compared to administration of tirzepatide or vehicle alone”, the “Gal-3 Relative” value [6] was 5.8 ± 0.6 percent fractional area and the “Gal-3 Total” value [6] was 117 ± 12 mg. The “α-SMA Relative” value [6] was 4.3 ± 0.5 percent fractional area, the “α-SMA Total” value [6] was 83 ± 8 mg and the “TG Relative” value [6] was 40 ± 3 mg per/g liver. For the same molecule, the “TG Total” value [6] was 75 ± 7 mg per/liver and the IC50 (GIP receptor [7]) was 223 nM.

For tirzepatide [reference compound], the “GLP-1 receptor % Binding avg at CMax, 0% HSA” value (GLP-1 receptor [2]; 0% human serum albumin) was −0.14%, the “GLP-1 receptor % Binding avg at CMax, 2% HSA” value (GLP-1 receptor [2]; 2% human serum albumin) was 33.01% and the “binding affinity for albumin (in words)” value (GLP-1 receptor [2]; inferred from the HSA ratios at GLP-1 and GIP receptors) was “greater than that of Compound 4 or of Compound 12”. The “GIP receptor % Binding avg at CMax, 0% HSA” value (GIP receptor [3]; 0% human serum albumin) was −3.05%, the “GIP receptor % Binding avg at CMax, 2% HSA” value (GIP receptor [3]; 2% human serum albumin) was 10.07% and the “GLP-1 receptor % Binding avg at CMax” value (GLP-1 receptor [5]) was 0.20%. For the same molecule, the “Gal-3 Total” value [6] was 138 ± 17 mg, the “α-SMA Total” value [6] was 108 ± 22 mg and the “TG Total” value [6] was 80 ± 11 mg per/liver. The “GIP receptor % Binding avg at CMax” value (GIP receptor [7]) was −1.21%.
